Data set [1] is described as follows: MR angiography after intravenous injection in a rabbit. Format: in vivo. The conditions noted are these: i.v. 0.1 mmole per kg. The source says: For the purpose of a comparison with a known contrast agent, MR angiographic images of a rabbit were taken (shown in FIG. 5) after intravenous injection of: • a commercial MRI contrast agent (Gd-DTPA commercially available under the tradename Magnevisto® from Schering A G, Berlin, Germany) at a concentration of 0.1 mmole per kg bodyweight (A-C), and • the complex of example 8 at a concentration of 0.05 mmole per kg bodyweight (A′-C′).

For data set [2] the following is noted: 0.25 mmolar solution, yellow-orange color; cited from earlier work.
The conditions of data set [3]: animals, 1 mmole of the gadolinium complex per kg body weight; cited from earlier work.

For `O=C([O-])CN(CCN(CC(=O)[O-])CC(=O)O)CCN(CC(=O)[O-])CC(=O)O.[Gd+3]` [Gd-DTPA], in data set [1] (immediately after injection), the “contrast enhancement of abdominal aorta, first pass” value is “moderately enhanced”. For the same compound, in data set [1] (one minute after contrast), the “contrast enhancement of abdominal aorta” value is “faintly enhanced”.

As to “gadolinium complex of the bis-diethylenetriaminepentaacetic acid pamoic acid derivative obtained from 3-hydroxy-2-naphtalene methyl carboxylate”, the “absorbance at 400 nm” value in data set [2] is listed as 0.75. In addition, the “side effects after intravenous bolus injection” value in data set [3] was “significant side effects (e.g. myocarditis)”.

Values taken from US7081472B2, “Substituted bis-indole derivatives useful as contrast agents, pharmaceutical compositions containing them and intermediates for producing them” (K. U. Leuven Research & Development, priority 2000, dated 2006).
